In patent US9382197B2, “Substituted hydroxamic acids and uses thereof” (Millennium Pharmaceuticals, Inc., priority 2010, dated 2016):

Target: T1, purified human HDAC6 (Homo sapiens, UniProt Q9UBN7)
T1 construct: purchased BPS Bioscience 5006
T1 sequence (Q9UBN7 1-1215): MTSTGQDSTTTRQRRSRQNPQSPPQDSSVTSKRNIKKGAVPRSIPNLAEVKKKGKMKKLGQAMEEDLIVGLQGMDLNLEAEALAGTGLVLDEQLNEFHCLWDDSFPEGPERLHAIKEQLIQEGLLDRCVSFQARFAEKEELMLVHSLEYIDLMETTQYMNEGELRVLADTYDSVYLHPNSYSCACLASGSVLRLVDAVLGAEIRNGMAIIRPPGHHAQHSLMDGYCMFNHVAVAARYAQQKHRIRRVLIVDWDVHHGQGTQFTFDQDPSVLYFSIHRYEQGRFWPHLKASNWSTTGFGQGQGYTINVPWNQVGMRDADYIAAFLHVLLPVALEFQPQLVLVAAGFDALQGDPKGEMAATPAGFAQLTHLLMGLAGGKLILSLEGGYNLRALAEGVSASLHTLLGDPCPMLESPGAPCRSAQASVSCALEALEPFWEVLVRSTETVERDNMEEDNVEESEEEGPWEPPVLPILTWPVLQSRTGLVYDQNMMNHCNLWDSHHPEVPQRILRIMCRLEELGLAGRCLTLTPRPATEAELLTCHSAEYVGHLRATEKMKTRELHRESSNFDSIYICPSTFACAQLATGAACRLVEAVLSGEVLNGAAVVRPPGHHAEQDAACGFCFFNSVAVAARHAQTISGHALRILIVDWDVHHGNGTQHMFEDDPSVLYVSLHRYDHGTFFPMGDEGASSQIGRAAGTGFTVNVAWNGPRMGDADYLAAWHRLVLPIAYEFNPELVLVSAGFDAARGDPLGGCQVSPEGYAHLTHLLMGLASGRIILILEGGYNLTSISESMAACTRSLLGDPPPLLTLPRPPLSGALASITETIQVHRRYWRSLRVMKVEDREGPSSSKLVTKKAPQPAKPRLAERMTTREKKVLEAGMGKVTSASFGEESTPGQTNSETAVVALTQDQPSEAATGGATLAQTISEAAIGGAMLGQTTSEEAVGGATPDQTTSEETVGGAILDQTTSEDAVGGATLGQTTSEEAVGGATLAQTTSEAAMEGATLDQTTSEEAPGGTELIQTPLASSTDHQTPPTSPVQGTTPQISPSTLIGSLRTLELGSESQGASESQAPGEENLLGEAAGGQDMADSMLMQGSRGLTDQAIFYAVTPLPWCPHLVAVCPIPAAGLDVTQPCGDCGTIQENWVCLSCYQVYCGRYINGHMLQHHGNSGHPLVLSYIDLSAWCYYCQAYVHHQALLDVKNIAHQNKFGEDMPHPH
Experiment: HDAC6 Enzyme Assay
Assay type: biochemical
Details: bin: greater than 500 nM and less than 1 μM (lower bound in nM, upper bound in μM)
Procedure, shortened: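 Deacetylated product quantified after trypsin digestion as released AMC (340/460 nm), following a 1 h, 30 °C reaction of human HDAC6 with Ac-RGK(Ac)-AMC peptide, quenched by trichostatin A. IC50 derived from DMSO-normalized curves.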

IC50 | Compound
500 to 1000 nM | O=C(NO)c1ccc([C@@H](NC(=O)C23CC4CC(CC(C4)C2)C3)c2ccccc2)cc1 [Compound I-259, N-[(S)-{4-[(hydroxyamino)carbonyl]phenyl}(phenyl)methyl]adamantane-1-carboxamide]
500 to 1000 nM | CC(NC(=O)c1cccc(S(C)(=O)=O)c1)c1cccc(C(=O)NO)c1 (stereo not drawn) [Compound I-199, N-(1-{3-[(hydroxyamino)carbonyl]phenyl}ethyl)-3-(methylsulfonyl)benzamide]
500 to 1000 nM | CC(C)(C)C(NC(=O)c1cccc(S(C)(=O)=O)c1)c1ccc(C(=O)NO)cc1 (stereo not drawn) [Compound I-75, N-(1-{4-[(hydroxyamino)carbonyl]phenyl}-2,2-dimethylpropyl)-3-(methylsulfonyl)benzamide]
500 to 1000 nM | Cc1cc(C(=O)NC(c2ccc(C(=O)NO)cc2)C(C)(C)C)c(C)o1 (stereo not drawn) [Compound I-9, N-(1-{4-[(hydroxyamino)carbonyl]phenyl}-2,2-dimethylpropyl)-2,5-dimethyl-3-furamide]

Same assay, conditions: bin: greater than 1 μM

IC50 | Compound
> 1000 nM | CC(C)(C)C(NC(=O)C1CCCC1)c1ccc(C(=O)NO)cc1 (stereo not drawn) [Compound I-373, 4-{1-[(cyclopentylcarbonyl)amino]-2,2-dimethylpropyl}-N-hydroxybenzamide]
> 1000 nM | Cc1c(C(=O)NC(C)c2cccc(C(=O)NO)c2)cnn1-c1ccccc1 (stereo not drawn) [Compound I-257, N-(1-{3-[(hydroxyamino)carbonyl]phenyl}ethyl)-5-methyl-1-phenyl-1H-pyrazole-4-carboxamide]
> 1000 nM | CC(NC(=O)c1cc2oc(-c3ccccc3)cc2n1C)c1cccc(C(=O)NO)c1 (stereo not drawn) [Compound I-180, N-(1-{3-[(hydroxyamino)carbonyl]phenyl}ethyl)-4-methyl-2-phenyl-4H-furo[3,2-b]pyrrole-5-carboxamide]
> 1000 nM | COc1ccccc1CC(=O)NC(C)c1ccc(C(=O)NO)cc1 (stereo not drawn) [Compound I-34, N-hydroxy-4-(1-{[(2-methoxyphenyl)acetyl]amino}ethyl)benzamide]
> 1000 nM | CC(C)CC(=O)NC(C)c1ccc(C(=O)NO)cc1 (stereo not drawn) [Compound I-111, N-hydroxy-4-{1-[(3-methylbutanoyl)amino]ethyl}benzamide]
> 1000 nM | Cc1c(C(=O)N[C@H](C)c2cccc(C(=O)NO)c2)oc2ccccc12 [Compound I-169, N-((1R)-1-{3-[(hydroxyamino)carbonyl]phenyl}ethyl)-3-methyl-1-benzofuran-2-carboxamide]

Same assay, conditions: purified human HDAC6, substrate Ac-Arg-Gly-Lys(Ac)-AMC, 1 hour at 30° C.; reported as bins

Compound | IC50
CCc1cc(C(=O)NC(c2ccc(C(=O)NO)cc2)C(C)(C)C)n(C)n1 (stereo not drawn) [Compound I-318, 3-ethyl-N-(1-{4-[(hydroxyamino)carbonyl]phenyl}-2,2-dimethylpropyl)-1-methyl-1H-pyrazole-5-carboxamide] | 100 to 500 nM
COc1cc(C(=O)NC(C)c2ccc(C(=O)NO)cc2)ccc1F (stereo not drawn) [Compound I-164, 4-fluoro-N-(1-{4-[(hydroxyamino)carbonyl]phenyl}ethyl)-3-methoxybenzamide] | < 100 nM
CC(C)C(NC(=O)C1CCCC1)c1ccc(C(=O)NO)cc1 (stereo not drawn) [Compound I-255, 4-{1-[(cyclopentylcarbonyl)amino]-2-methylpropyl}-N-hydroxybenzamide] | 100 to 500 nM
CC(C)C(NC(=O)Cc1csc2ccc(Cl)cc12)c1ccc(C(=O)NO)cc1 (stereo not drawn) [Compound I-206, 4-(1-{[(5-chloro-1-benzothien-3-yl)acetyl]amino}-2-methylpropyl)-N-hydroxybenzamide] | 100 to 500 nM
CC(C)[C@@H](Nc1nc(C(F)(F)F)cs1)c1ccc(C(=O)NO)cc1 [Compound I-529, N-hydroxy-4-((1R)-2-methyl-1-{[4-(trifluoromethyl)-1,3-thiazol-2-yl]amino}propyl)benzamide] | < 100 nM
CCCC(=O)NC(C)c1ccc(C(=O)NO)cc1 (stereo not drawn) [Compound I-243, 4-[1-(butyrylamino)ethyl]-N-hydroxybenzamide] | < 100 nM
CC(NC(=O)Nc1cc(Cl)cc(Cl)c1)c1ccc(C(=O)NO)cc1 (stereo not drawn) [Compound I-388, 4-[1-({[(3,5-dichlorophenyl)amino]carbonyl}amino)ethyl]-N-hydroxybenzamide] | 100 to 500 nM
CC(NC(=O)c1cc2ccccc2n1C)c1cccc(C(=O)NO)c1 (stereo not drawn) [Compound I-219, N-(1-{3-[(hydroxyamino)carbonyl]phenyl}ethyl)-1-methyl-1H-indole-2-carboxamide] | 100 to 500 nM
CC(C)C(NC(=O)c1cnccn1)c1ccc(C(=O)NO)cc1 (stereo not drawn) [Compound I-203, N-(1-{4-[(hydroxyamino)carbonyl]phenyl}-2-methylpropyl)pyrazine-2-carboxamide] | 100 to 500 nM
CC(C)(C)c1ccc(C(=O)NC(c2ccc(C(=O)NO)cc2)C(C)(C)C)cc1 (stereo not drawn) [Compound I-377, 4-tert-butyl-N-(1-{4-[(hydroxyamino)carbonyl]phenyl}-2,2-dimethylpropyl)benzamide] | 100 to 500 nM

Other lines, results leading:

IC50 | Compound
< 100 nM | CC(NC(=O)Nc1cccc2ccccc12)c1ccc(C(=O)NO)cc1 (stereo not drawn) [Compound I-6, N-hydroxy-4-(1-{[(1-naphthylamino)carbonyl]amino}ethyl)benzamide]
< 100 nM | CCC[C@@H](NC(=O)c1cc2ccccc2s1)c1ccc(C(=O)NO)cc1 [Compound I-299, N-((1R)-1-{4-[(hydroxyamino)carbonyl]phenyl}butyl)-1-benzothiophene-2-carboxamide]
< 100 nM | C[C@@H](NC(=O)NC12CC3CC(CC(C3)C1)C2)c1ccc(C(=O)NO)cc1 [Compound I-374, 4-[(1R)-1-({[1-adamantylamino]carbonyl}amino)ethyl]-N-hydroxybenzamide]
< 100 nM | CC(C)[C@@H](NC(=O)C12CC3CC(CC(O)(C3)C1)C2)c1ccc(C(=O)NO)cc1 [Compound I-223, 3-hydroxy-N-((1R)-1-{4-[(hydroxyamino)carbonyl]phenyl}-2-methylpropyl)adamantane-1-carboxamide]
< 100 nM | Cc1ccc(NC(=O)NC(C)c2ccc(C(=O)NO)cc2)cc1Cl (stereo not drawn) [Compound I-103, 4-[1-({[(3-chloro-4-methylphenyl)amino]carbonyl}amino)ethyl]-N-hydroxybenzamide]
100 to 500 nM | CC(C)[C@H](NC(=O)c1cc2ccccc2[nH]1)c1ccc(C(=O)NO)cc1 [Compound I-279, N-((1S)-1-{4-[(hydroxyamino)carbonyl]phenyl}-2-methylpropyl)-1H-indole-2-carboxamide]
< 100 nM | CC(C)[C@@H](NC(=O)Nc1cccc2ccccc12)c1ccc(C(=O)NO)cc1 [Compound I-524, N-hydroxy-4-((1R)-2-methyl-1-{[(1-naphthylamino)carbonyl]amino}propyl)benzamide]
100 to 500 nM | CC(C)C(NC(=O)c1ccc2ncsc2c1)c1ccc(C(=O)NO)cc1 (stereo not drawn) [Compound I-43, N-(1-{4-[(hydroxyamino)carbonyl]phenyl}-2-methylpropyl)-1,3-benzothiazole-6-carboxamide]
< 100 nM | CC(C)C(NC(=O)c1ccc(-c2ccccc2)[nH]c1=O)c1ccc(C(=O)NO)cc1 (stereo not drawn) [Compound I-375, N-(1-{4-[(hydroxyamino)carbonyl]phenyl}-2-methylpropyl)-2-oxo-6-phenyl-1,2-dihydropyridine-3-carboxamide]
< 100 nM | CC(NC(=O)c1ccc2ccccc2n1)c1ccc(C(=O)NO)cc1 (stereo not drawn) [Compound I-128, N-(1-{4-[(hydroxyamino)carbonyl]phenyl}ethyl)quinoline-2-carboxamide]
< 100 nM | CC(C)[C@@H](NC(=O)c1cc2ccccc2s1)c1ccc(C(=O)NO)cc1 [Compound I-214, N-((1R)-1-{4-[(hydroxyamino)carbonyl]phenyl}-2-methylpropyl)-1-benzothiophene-2-carboxamide]
< 100 nM | CC(NC(=O)Nc1ccc2c(c1)CCO2)c1ccc(C(=O)NO)cc1 (stereo not drawn) [Compound I-148, 4-(1-{[(2,3-dihydro-1-benzofuran-5-ylamino)carbonyl]amino}ethyl)-N-hydroxybenzamide]
< 100 nM | CC(C)C(NC(=O)c1cccn1C)c1ccc(C(=O)NO)cc1 (stereo not drawn) [Compound I-30, N-(1-{4-[(hydroxyamino)carbonyl]phenyl}-2-methylpropyl)-1-methyl-1H-pyrrole-2-carboxamide]
